Assay: Membrane permeation property of the cosurfactant in soft capsules over storage at room temperature (cosurfactant content by gas chromatography)
Assay type: physicochemical
Conditions: after 50 days
Experimental: The content of the cosurfactant in each soft capsule preparation was analyzed by gas chromatography. The components and their constitutional ratios in the compositions used in this experiment are given in the following Table 1 and the experiment results are given in the following Table 2.

For `CO[C@H]1CO[C@H]2[C@@H]1OC[C@H]2OC` [dimethylisosorbide, 1,4:3,6-dianhydro-2,5-dimethyl-D-glucitol], the “change in content of the cosurfactant in the soft capsule” value was “does not change in its content even after 50 days”.

— patent EP0650721B1 (HANMI PHARM. IND. CO., LTD., priority 1993, dated 1995)
